According to patent US10456407B2, “Combination therapy for treating cancer” (Epizyme, Inc., priority 2015, dated 2019):

System: WSU-DLCL2 cells
Experiment: RT2 Glucocorticoid signaling PCR array, WSU-DLCL2 (WSU) cell line (Table 4c)
Assay type: cell-based

## C[C@]12C=CC(=O)C=C1CC[C@@H]1[C@@H]2[C@@H](O)C[C@@]2(C)[C@H]1CC[C@]2(O)C(=O)CO [Prednisolone, prednisolone]
Gene MERTK
  ΔCT (B2M), MERTK: 13.379
Gene MT2A
  Ct Values, MT2A: 24.518
  ΔCT (B2M), MT2A: 5.373
Gene MT2A, compared to DMSO
  ΔΔCT, MT2A: 0.106
Gene NFKBIA
  Ct Values, NFKBIA: 22.895
  ΔCT (B2M), NFKBIA: 3.750
Gene NFKBIA, compared to DMSO
  ΔΔCT, NFKBIA: 0.829
Gene NR3C1
  Ct Values, NR3C1: 23.110
  ΔCT (B2M), NR3C1: 3.965
Gene NR3C1, compared to DMSO
  ΔΔCT, NR3C1: 0.165
Gene PDCD7
  Ct Values, PDCD7: 23.874
  ΔCT (B2M), PDCD7: 4.729
Gene PDCD7, compared to DMSO
  ΔΔCT, PDCD7: 0.000
Gene PDP1
  Ct Values, PDP1: 24.957
  ΔCT (B2M), PDP1: 5.812
Gene PDP1, compared to DMSO
  ΔΔCT, PDP1: −0.109
Gene PER1
  Ct Values, PER1: 24.989
  ΔCT (B2M), PER1: 5.844
Gene PER1, compared to DMSO
  ΔΔCT, PER1: 0.185
Gene PER2
  Ct Values, PER2: 24.218
  ΔCT (B2M), PER2: 5.073
Gene PER2, compared to DMSO
  ΔΔCT, PER2: 0.072
Gene PIK3R1
  Ct Values, PIK3R1: 23.429
  ΔCT (B2M), PIK3R1: 4.284
Gene PIK3R1, compared to DMSO
  ΔΔCT, PIK3R1: 0.000
Gene PLD1
  Ct Values, PLD1: 35.266
  ΔCT (B2M), PLD1: 16.121
Gene PLEKHF1
  Ct Values, PLEKHF1: 26.977
  ΔCT (B2M), PLEKHF1: 7.832
Gene PLEKHF1, compared to DMSO
  ΔΔCT, PLEKHF1: 0.077
Gene POU2F1
  Ct Values, POU2F1: 24.368
  ΔCT (B2M), POU2F1: 5.223
Gene POU2F1, compared to DMSO
  ΔΔCT, POU2F1: 0.439
Gene POU2F2
  Ct Values, POU2F2: 22.565
  ΔCT (B2M), POU2F2: 3.420
Gene POU2F2, compared to DMSO
  ΔΔCT, POU2F2: −0.753
Gene RASA3
  Ct Values, RASA3: 23.454
  ΔCT (B2M), RASA3: 4.309
Gene RASA3, compared to DMSO
  ΔΔCT, RASA3: −0.193
Gene RGS2
  Ct Values, RGS2: 23.962
  ΔCT (B2M), RGS2: 4.817
Gene RGS2, compared to DMSO
  ΔΔCT, RGS2: 1.365
Gene RHO8
  Ct Values, RHO8: 28.803
  ΔCT (B2M), RHO8: 9.658
Gene RHO8, compared to DMSO
  ΔΔCT, RHO8: −0.616
Gene RPLP0
  Ct Values, RPLP0: 15.330
  ΔCT (B2M), RPLP0: −3.815
Gene SESN1
  Ct Values, SESN1: 25.915
  ΔCT (B2M), SESN1: 6.770
Gene SESN1, compared to DMSO
  ΔΔCT, SESN1: −2.469
Gene SGK1
  Ct Values, SGK1: 27.309
  ΔCT (B2M), SGK1: 8.164
Gene SGK1, compared to DMSO
  ΔΔCT, SGK1: 2.035
Gene SLC10A6
  Ct Values, SLC10A6: 37.200
  ΔCT (B2M), SLC10A6: 18.055
Gene SLC10A6, compared to DMSO
  ΔΔCT, SLC10A6: 0.888
Gene SLC19A2
  Ct Values, SLC19A2: 25.887
  ΔCT (B2M), SLC19A2: 6.742
Gene SLC19A2, compared to DMSO
  ΔΔCT, SLC19A2: −0.446
Gene SLC22A5
  Ct Values, SLC22A5: 29.427
  ΔCT (B2M), SLC22A5: 10.282
Gene SLC22A5, compared to DMSO
  ΔΔCT, SLC22A5: 0.831
Gene SNTA1
  Ct Values, SNTA1: 24.329
  ΔCT (B2M), SNTA1: 5.184
Gene SNTA1, compared to DMSO
  ΔΔCT, SNTA1: 0.196
Gene SPHK1
  Ct Values, SPHK1: 29.804
  ΔCT (B2M), SPHK1: 10.659
Gene SPHK1, compared to DMSO
  ΔΔCT, SPHK1: 0.466
Gene SPSB1
  Ct Values, SPSB1: 29.963
  ΔCT (B2M), SPSB1: 10.818
Gene SPSB1, compared to DMSO
  ΔΔCT, SPSB1: 0.655
Gene STAT5A
  Ct Values, STAT5A: 25.699
  ΔCT (B2M), STAT5A: 6.554
Gene STAT5A, compared to DMSO
  ΔΔCT, STAT5A: 0.437
Gene STAT5B
  Ct Values, STAT5B: 23.270
  ΔCT (B2M), STAT5B: 4.125
Gene STAT5B, compared to DMSO
  ΔΔCT, STAT5B: 0.161
Gene TBL1XR1
  Ct Values, TBL1XR1: 21.479
  ΔCT (B2M), TBL1XR1: 2.334
Gene TBL1XR1, compared to DMSO
  ΔΔCT, TBL1XR1: 0.182
Gene TNF
  Ct Values, TNF: 24.151
  ΔCT (B2M), TNF: 5.006
Gene TNF, compared to DMSO
  ΔΔCT, TNF: 0.762
Gene TNFAIP3
  Ct Values, TNFAIP3: 26.733
  ΔCT (B2M), TNFAIP3: 7.588
Gene TNFAIP3, compared to DMSO
  ΔΔCT, TNFAIP3: 2.092
Gene TSC22D3
  Ct Values, TSC22D3: 22.481
  ΔCT (B2M), TSC22D3: 3.336
Gene TSC22D3, compared to DMSO
  ΔΔCT, TSC22D3: −2.728
Gene USP2
  Ct Values, USP2: 20.884
  ΔCT (B2M), USP2: 1.739
Gene USP2, compared to DMSO
  ΔΔCT, USP2: −1.457
Gene USPS4
  Ct Values, USPS4: 26.453
  ΔCT (B2M), USPS4: 7.308
Gene USPS4, compared to DMSO
  ΔΔCT, USPS4: 0.209
Gene VDR
  Ct Values, VDR: 29.232
  ΔCT (B2M), VDR: 10.087
Gene VDR, compared to DMSO
  ΔΔCT, VDR: −0.565
Gene VLDLR
  Ct Values, VLDLR: 30.596
  ΔCT (B2M), VLDLR: 11.451
Gene VLDLR, compared to DMSO
  ΔΔCT, VLDLR: 2.649
Gene ZFP36
  Ct Values, ZFP36: 25.166
  ΔCT (B2M), ZFP36: 6.021
Gene ZFP36, compared to DMSO
  ΔΔCT, ZFP36: 1.104
Gene ZHX3
  Ct Values, ZHX3: 25.570
  ΔCT (B2M), ZHX3: 6.425
Gene ZHX3, compared to DMSO
  ΔΔCT, ZHX3: 0.101
Gene ZNF281
  Ct Values, ZNF281: 23.608
  ΔCT (B2M), ZNF281: 4.463
Gene ZNF281, compared to DMSO
  ΔΔCT, ZNF281: −0.094
